In PubChem BioAssay (NCI) one finds TGI and GI50 data, which are given here for eight compounds.

Some test systems named below: A549 NSCLC; OVCAR-4 ovarian; TK-10 renal; OVCAR-3 ovarian; HCT-15 colon; SR leukemia; 786-0 renal; UO-31 renal; MDA-MB-435; MCF7 breast.
Holding throughout (assay): DTP human tumour cell line panel, 48 h

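All cell lines were grown in 96-well plates and treated with compound for 48 hours. GI50 = concentration required for 50% inhibition of growth. TGI marks complete inhibition of growth.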

What is called TGI is the concentration at which net growth stops. Read a low TGI as more potent growth arrest. In the case of `COC(=O)C1=C(C)NC(C)=C(C(=O)OC)C1c1cccc(/[N+]([O-])=C/c2ccccc2)c1`, the TGI with A549 NSCLC is over 100 µM; with OVCAR-4 ovarian, 30.2 µM; in the test on TK-10 renal, over 100 µM; in the test on OVCAR-3 ovarian, 31.6 µM; in the test on HCT-15 colon, 44.9 µM; with SR leukemia, 62 µM. The TGI is 31.5 µM with 786-0 renal, over 100 µM in the test on UO-31 renal, 35.7 µM in the test with MDA-MB-435 and 34.3 µM in the test on MCF7 breast.
What is called GI50 is the concentration that inhibits growth by half. In the case of `CCC(=O)NC1=C(Cl)C(=O)C(NC(=O)CC)=C(Cl)C1=O`, the GI50 with A549 NSCLC was 29.4 µM; in the test on OVCAR-4 ovarian it was 14.4 µM; with TK-10 renal, 6.91 µM; in the test with OVCAR-3 ovarian, 5.14 µM; in the test with HCT-15 colon, 9.02 µM; in the test with SR leukemia, 8.13 µM. Also, the GI50 with 786-0 renal was 18.7 µM; in the test with UO-31 renal, 5.97 µM; in the test with MDA-MB-435 it was 18.9 µM; with MCF7 breast it was 9.51 µM. Further, the TGI in the test with A549 NSCLC is over 61.8 µM; with OVCAR-4 ovarian, 29 µM; in the test with TK-10 renal, 15.4 µM; in the test on OVCAR-3 ovarian, 9.56 µM; in the test with HCT-15 colon it was 27.1 µM; in the test with SR leukemia, over 23.2 µM. Further, the TGI amounted to 33.4 µM with 786-0 renal, 11.4 µM in the test on UO-31 renal, 33.8 µM in the test with MDA-MB-435 and 28.3 µM in the test on MCF7 breast.
In the case of `O=C1/C=C/[C@@H](O)[C@@H]2C[C@@H](O)C[C@H]2/C=C/CCC[C@H](CCO)O1`, the GI50 in the test with A549 NSCLC was 0.401 µM; in the test on OVCAR-4 ovarian, 0.132 µM; with TK-10 renal, 0.245 µM; in the test on OVCAR-3 ovarian, 0.193 µM; in the test with HCT-15 colon, 0.35 µM; with SR leukemia, 0.297 µM. For the same compound, the GI50 with 786-0 renal was 0.0362 µM; in the test on UO-31 renal it was 0.22 µM; in the test with MDA-MB-435 it was 0.254 µM; in the test on MCF7 breast, 0.188 µM. In addition, the TGI in the test with A549 NSCLC is over 100 µM; in the test with OVCAR-4 ovarian, over 100 µM; in the test on TK-10 renal, 0.832 µM; with OVCAR-3 ovarian, 0.5 µM; in the test on HCT-15 colon, over 100 µM; in the test on 786-0 renal it was 0.142 µM. Further, the TGI with UO-31 renal is over 100 µM; in the test on MDA-MB-435 it was over 100 µM; in the test on MCF7 breast, 0.558 µM.
Regarding `CN1CCN(Cc2ccc(NC(=O)c3cncc(C#Cc4ccc(N)nc4)c3)cc2C(F)(F)F)CC1`, the GI50 with A549 NSCLC is 1.38 µM; with OVCAR-4 ovarian, 0.46 µM; in the test with TK-10 renal, 1.63 µM; in the test on OVCAR-3 ovarian it was 1.72 µM; with HCT-15 colon, 1.12 µM; in the test on SR leukemia, 0.679 µM. Further, the GI50 in the test with 786-0 renal was 1.76 µM; in the test with UO-31 renal, 0.716 µM; in the test on MDA-MB-435, 1.09 µM; in the test on MCF7 breast, 1.23 µM. For the same compound, the TGI in the test on A549 NSCLC was 7.24 µM; in the test with OVCAR-4 ovarian, 4.5 µM; in the test on TK-10 renal, 9.54 µM; in the test with OVCAR-3 ovarian, 7.88 µM; with HCT-15 colon it was 5.96 µM; in the test on SR leukemia, 3.51 µM. The TGI with 786-0 renal was found to be 6.83 µM; with UO-31 renal, 2.93 µM; in the test on MDA-MB-435, 5.68 µM; in the test with MCF7 breast, 7.22 µM.
Regarding `COc1cccc(N2CC(O)=C(c3nc4ccccc4s3)C2=N)c1`, the GI50 is 0.656 µM in the test with A549 NSCLC; 6.19 µM in the test on OVCAR-4 ovarian; 3.24 µM in the test with TK-10 renal; 0.269 µM in the test with OVCAR-3 ovarian; 0.09 µM in the test on HCT-15 colon; 0.363 µM in the test with 786-0 renal. Further, the GI50 is 0.717 µM with UO-31 renal, 0.0478 µM with MDA-MB-435 and 0.289 µM in the test on MCF7 breast. Moreover, the TGI is over 56.6 µM in the test on A549 NSCLC; over 100 µM with OVCAR-4 ovarian; 70.2 µM with TK-10 renal; 0.82 µM with OVCAR-3 ovarian; 31.2 µM in the test with HCT-15 colon; over 100 µM with SR leukemia. Further, the TGI is 37.1 µM with 786-0 renal, over 70.3 µM in the test with UO-31 renal, 0.362 µM with MDA-MB-435 and over 100 µM in the test on MCF7 breast.
Consider `Nc1nc(-c2ccc3c(c2)/C(=C\c2cc(Br)c(O)c(Br)c2)C(=O)N3)cs1`, for which the GI50 was over 25 µM in the test with A549 NSCLC; over 25 µM in the test with OVCAR-4 ovarian; over 25 µM in the test with TK-10 renal; 8.14 µM in the test on OVCAR-3 ovarian; over 20.2 µM with HCT-15 colon; 11.3 µM with SR leukemia. Besides, the GI50 is 14.1 µM in the test with 786-0 renal, 19.1 µM in the test on UO-31 renal, 4.68 µM in the test with MDA-MB-435 and 12.8 µM in the test on MCF7 breast. Besides, the TGI in the test with A549 NSCLC is over 25 µM; in the test on OVCAR-4 ovarian it was over 25 µM; in the test on TK-10 renal it was over 25 µM; in the test with OVCAR-3 ovarian it was 20.4 µM; in the test on HCT-15 colon, over 25 µM; in the test on SR leukemia it was over 25 µM. In addition, the TGI was over 25 µM in the test with 786-0 renal, over 25 µM with UO-31 renal, 12 µM with MDA-MB-435 and over 25 µM with MCF7 breast.
Take `Cc1ccc2ccccc2c1CSc1nc(N)nc2c1ncn2CC(C)C`: the TGI with A549 NSCLC is over 100 µM; in the test on OVCAR-4 ovarian, over 100 µM; in the test on TK-10 renal it was over 100 µM; in the test on OVCAR-3 ovarian, over 100 µM; in the test with HCT-15 colon, over 100 µM; in the test on SR leukemia, 50.6 µM. Moreover, the total growth inhibition concentration (TGI) in the test with 786-0 renal was over 100 µM; with UO-31 renal it was 13.2 µM; with MDA-MB-435 it was over 84.4 µM; in the test on MCF7 breast it was over 63.9 µM.
On to `C=CCc1c(O)c(C(=O)/C=C/c2ccc(Cl)cc2)c(OC)c2ccoc12`, for which the GI50 with A549 NSCLC was 4.7 µM; in the test with OVCAR-4 ovarian, 2.77 µM; in the test on TK-10 renal, 3.62 µM; in the test on OVCAR-3 ovarian it was 1.97 µM; in the test on HCT-15 colon, 3.4 µM; with SR leukemia, 2.77 µM. The GI50 is 4.83 µM in the test with 786-0 renal, 2.88 µM in the test on UO-31 renal, 2.06 µM in the test on MDA-MB-435 and 2.51 µM in the test on MCF7 breast. The total growth inhibition concentration (TGI) in the test on A549 NSCLC amounted to 18.2 µM; with OVCAR-4 ovarian, 13.1 µM; with TK-10 renal, 12.9 µM; with OVCAR-3 ovarian, 4.41 µM; in the test with HCT-15 colon, 12.9 µM; in the test with SR leukemia it was 9.11 µM. In addition, the TGI in the test on 786-0 renal turned out to be 18.6 µM; in the test with UO-31 renal, 13.3 µM; in the test with MDA-MB-435, 4.53 µM; in the test with MCF7 breast, 11.4 µM.
